Here are results for 19 compounds from patent US12577206B2 (BRISTOL-MYERS SQUIBB COMPANY, priority 2020, dated 2026).

One assay concerns the target T1, human FPR2 (Homo sapiens, UniProt P25090).
T1 sequence (P25090 1-351): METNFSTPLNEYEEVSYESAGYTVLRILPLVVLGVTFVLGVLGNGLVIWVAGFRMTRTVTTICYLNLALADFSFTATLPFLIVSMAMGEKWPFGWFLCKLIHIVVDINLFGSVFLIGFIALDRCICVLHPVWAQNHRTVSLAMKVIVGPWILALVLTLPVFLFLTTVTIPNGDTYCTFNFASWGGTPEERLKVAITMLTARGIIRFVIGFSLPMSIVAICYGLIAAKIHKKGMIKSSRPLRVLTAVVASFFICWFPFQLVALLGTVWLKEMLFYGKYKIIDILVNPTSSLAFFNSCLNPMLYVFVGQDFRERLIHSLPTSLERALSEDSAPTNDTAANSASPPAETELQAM
The assay can be described thus: FPR2 cyclic adenosine monophosphate (cAMP) assay. Type of assay: cell-based. To be noted: CHO cells overexpressing human FPR2; forskolin 5 μM; inhibition of cAMP production; HTRF; read-out: hFPR2 cAMP2 EC50. The method in brief: (§1)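 CHO cells overexpressing human FPR1 (4,000/well) or FPR2 (2,000/well) were incubated 30 min at room temperature with compound (0.020 nM to 100 μM, 1% DMSO), IBMX 200 μM, and forskolin at 10 μM (FPR1) or 5 μM (FPR2), all final. HTRF cAMP read-out; inhibition fitted by 4-parameter logistic equation.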
(Changes in cAMP serve as a functional read-out for many G protein-coupled receptors.)

In another assay the target is T2, human FPR1 (Homo sapiens, UniProt P21462).
T2 sequence (P21462 1-350): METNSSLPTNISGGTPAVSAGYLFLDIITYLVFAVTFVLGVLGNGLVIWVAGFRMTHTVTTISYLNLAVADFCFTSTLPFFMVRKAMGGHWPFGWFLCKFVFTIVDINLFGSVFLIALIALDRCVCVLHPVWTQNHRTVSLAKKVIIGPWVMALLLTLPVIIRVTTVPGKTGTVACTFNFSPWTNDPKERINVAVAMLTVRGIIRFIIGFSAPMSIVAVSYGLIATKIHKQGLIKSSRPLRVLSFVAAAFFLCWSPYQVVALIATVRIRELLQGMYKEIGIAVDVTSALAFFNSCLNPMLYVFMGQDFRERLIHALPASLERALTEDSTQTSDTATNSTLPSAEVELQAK
As to the kind of experiment: FPR1 cyclic adenosine monophosphate (cAMP) assay. Type of assay: cell-based. The settings on record: CHO cells overexpressing human FPR1; forskolin 10 μM; inhibition of cAMP production; HTRF; read-out: hFPR1 cAMP2 EC50. In short, it runs like this: as §1

As a reminder, the EC50 is the concentration needed to bring the measured effect to its halfway point. Take `COc1cc(F)c(-c2c(NC(=O)c3ccc(OC(F)(F)F)cc3)c(=O)n(-c3ncccc3F)n2C)c(F)c1` [Example 32, N-[5-(2,6-difluoro-4-methoxyphenyl)-2-(3-fluoropyridin-2-yl)-1-methyl-3-oxo-2,3-dihydro-1H-pyrazol-4-yl]-4-(trifluoromethoxy)benzamide]: the EC50 amounted to 8 nM on human FPR2 and 6500 nM at human FPR1.

Take `COc1cc(F)c(-c2c(NC(=O)c3ccc(OC(F)F)cc3)c(=O)n(-c3nc(C(F)(F)F)ccc3OC[C@H](C)O)n2C)c(F)c1` [Example 373, (S)-N-(5-(2,6-Difluoro-4-methoxyphenyl)-2-(3-(2-hydroxypropoxy)-6-(trifluoromethyl)pyridin-2-yl)-1-methyl-3-oxo-2,3-dihydro-1H-pyrazol-4-yl)-4-(difluoromethoxy)benzamide]: the figures for the 50% effective concentration (EC50) on human FPR2 and on human FPR1 were 16 nM and over 10000 nM, respectively.

Take `COCCNc1ccc(C(F)(F)F)c(-n2c(=O)c(NC(=O)c3ccc(OC(F)F)cc3)c(-c3c(F)cc(OC)cc3F)n2C)n1` [Example 235, N-[5-(2,6-difluoro-4-methoxyphenyl)-2-{6-[(2-methoxyethyl)amino]-3-(trifluoromethyl)pyridin-2-yl}-1-methyl-3-oxo-2,3-dihydro-1H-pyrazol-4-yl]-4-(difluoromethoxy)benzamide]: the EC50 at human FPR2 was 1 nM; on human FPR1, over 10000 nM.

As to `COc1cc(F)c(-c2c(NC(=O)c3ccc(OC(F)F)cc3)c(=O)n(-c3nc(N(C)CC(C)(C)O)ccc3C(F)(F)F)n2C)c(F)c1` [Example 261, N-[5-(2,6-difluoro-4-methoxyphenyl)-2-{6-[(2-hydroxy-2-methylpropyl)(methyl)amino]-3-(trifluoromethyl)pyridin-2-yl}-1-methyl-3-oxo-2,3-dihydro-1H-pyrazol-4-yl]-4-(difluoromethoxy)benzamide], the EC50 on human FPR2 was 2 nM; on human FPR1 it was over 5000 nM.

Regarding `COc1ccc(-c2c(NC(=O)c3ccc(OC(F)F)cc3)c(=O)n(-c3ccccc3)n2C)cc1` [Example 7, 4-(difluoromethoxy)-N-[5-(4-methoxyphenyl)-1-methyl-3-oxo-2-phenyl-2,3-dihydro-1H-pyrazol-4-yl]benzamide], the values for the concentration giving a half-maximal response (EC50) on human FPR2 and at human FPR1 were 10 nM and 300 nM, respectively.

Take `COc1cc(C2CCCN(CCO)C2)nc(-n2c(=O)c(NC(=O)c3ccc(OC(F)F)cc3)c(-c3c(F)cc(OC)cc3F)n2C)c1` (centres unmarked) [Example 338, N-(5-(2,6-Difluoro-4-methoxyphenyl)-2-(6-(1-(2-hydroxyethyl)piperidin-3-yl)-4-methoxypyridin-2-yl)-1-methyl-3-oxo-2,3-dihydro-1H-pyrazol-4-yl)-4-(difluoromethoxy)benzamide]: the 50% effective concentration (EC50) is 2 nM on human FPR2 and over 10000 nM at human FPR1.

With `COc1cc(F)c(-c2c(NC(=O)c3ccc(C(F)(F)F)cc3)c(=O)n(-c3ccc(F)cc3)n2C)c(F)c1` [Example 17, N-[5-(2,6-difluoro-4-methoxyphenyl)-2-(4-fluorophenyl)-1-methyl-3-oxo-2,3-dihydro-1H-pyrazol-4-yl]-4-(trifluoromethyl)benzamide], the EC50 turned out to be 51 nM on human FPR2 and 1700 nM on human FPR1.

Regarding `COc1cc(F)c(-c2c(NC(=O)c3ccc(OC(F)F)cc3)c(=O)n(-c3cc(C)cc(C#N)n3)n2C)c(F)c1` [Example 362, N-(2-(6-Cyano-4-methylpyridin-2-yl)-5-(2,6-difluoro-4-methoxyphenyl)-1-methyl-3-oxo-2,3-dihydro-1H-pyrazol-4-yl)-4-(difluoromethoxy)benzamide], the values for the EC50 on human FPR2 and at human FPR1 were 10 nM and over 10000 nM, respectively.

`COc1cc(F)c(-c2c(NC(=O)c3ccc(OC(F)(F)F)cc3)c(=O)n(-c3ccc(C4CC4)cn3)n2C)c(F)c1` [Example 52, N-[2-(5-cyclopropylpyridin-2-yl)-5-(2,6-difluoro-4-methoxyphenyl)-1-methyl-3-oxo-2,3-dihydro-1H-pyrazol-4-yl]-4-(trifluoromethoxy)benzamide]: the EC50 at human FPR2 was 9 nM; at human FPR1, 190 nM.

For the compound `COc1cc(F)c(-c2c(NC(=O)c3ccc(OC(F)F)cc3)c(=O)n(-c3nc(C(C)(C)O)ccc3C(F)(F)F)n2C)c(F)c1` [Example 275, N-[5-(2,6-difluoro-4-methoxyphenyl)-2-[6-(2-hydroxypropan-2-yl)-3-(trifluoromethyl)pyridin-2-yl]-1-methyl-3-oxo-2,3-dihydro-1H-pyrazol-4-yl]-4-(difluoromethoxy)benzamide], the EC50 is 5 nM on human FPR2 and over 10000 nM on human FPR1.

As for `[2H]C([2H])([2H])Oc1cc(F)c(-c2c(NC(=O)c3ccc(OC(F)(F)F)cc3)c(=O)n(-c3cccc(C(C)(C)O)n3)n2C)c(F)c1` [Example 405, N-(5-(2,6-difluoro-4-(methoxy-d3)phenyl)-2-(6-(2-hydroxypropan-2-yl)pyridin-2-yl)-1-methyl-3-oxo-2,3-dihydro-1H-pyrazol-4-yl)-4-(trifluoromethoxy)benzamide], the concentration giving a half-maximal response (EC50) at human FPR2 is 8 nM; on human FPR1, 390 nM.

As to `COc1cc(F)c(-c2c(NC(=O)c3ccc(Cl)cc3)c(=O)n(-c3ccc(Cl)cn3)n2C)c(F)c1` [Example 43, 4-chloro-N-[2-(5-chloropyridin-2-yl)-5-(2,6-difluoro-4-methoxyphenyl)-1-methyl-3-oxo-2,3-dihydro-1H-pyrazol-4-yl]benzamide], the concentration giving a half-maximal response (EC50) was 41 nM at human FPR2 and over 10000 nM on human FPR1.

In the case of `COc1cc(F)c(-c2c(NC(=O)c3ccc(OC(F)(F)F)cc3)c(=O)n(-c3cc(C)cc(C)n3)n2C)c(F)c1` [Example 66, N-[5-(2,6-difluoro-4-methoxyphenyl)-2-(4,6-dimethylpyridin-2-yl)-1-methyl-3-oxo-2,3-dihydro-1H-pyrazol-4-yl]-4-(trifluoromethoxy)benzamide], the 50% effective concentration (EC50) was 8 nM at human FPR2 and 2500 nM at human FPR1.

Take `COc1cc(F)c(-c2c(NC(=O)c3ccc(OC(F)F)cc3)c(=O)n(-c3nc(N4CCN(CC(F)(F)F)CC4)ccc3Cl)n2C)c(F)c1` [Example 239, N-(2-{3-chloro-6-[4-(2,2,2-trifluoroethyl)piperazin-1-yl]pyridin-2-yl}-5-(2,6-difluoro-4-methoxyphenyl)-1-methyl-3-oxo-2,3-dihydro-1H-pyrazol-4-yl)-4-(difluoromethoxy)benzamide]: the figures for the 50% effective concentration (EC50) at human FPR2 and at human FPR1 were 5 nM and 2700 nM, respectively.

Take `COc1cc(C2CCN(CCO)CC2)nc(-n2c(=O)c(NC(=O)c3ccc(OC(F)F)cc3)c(-c3c(F)cc(OC)cc3F)n2C)c1` [Example 368, N-(5-(2,6-Difluoro-4-methoxyphenyl)-2-(6-(1-(2-hydroxyethyl)piperidin-4-yl)-4-methoxypyridin-2-yl)-1-methyl-3-oxo-2,3-dihydro-1H-pyrazol-4-yl)-4-(difluoromethoxy)benzamide]: the EC50 was 7 nM at human FPR2 and over 10000 nM at human FPR1.

In the case of `COc1cc(F)c(-c2c(NC(=O)c3ccc(OC(F)F)cc3)c(=O)n(-c3nc(N(C4CC4)C4CC4)ccc3C(F)(F)F)n2C)c(F)c1` [Example 267, N-{2-[6-(dicyclopropylamino)-3-(trifluoromethyl)pyridin-2-yl]-5-(2,6-difluoro-4-methoxyphenyl)-1-methyl-3-oxo-2,3-dihydro-1H-pyrazol-4-yl}-4-(difluoromethoxy)benzamide], the EC50 on human FPR2 was determined as 2 nM; on human FPR1, 7100 nM.

For `CCOc1ccc(Cl)nc1-n1c(=O)c(NC(=O)c2ccc(OC(F)F)cc2)c(-c2c(F)cc(OC)cc2F)n1C` [Example 248, N-[2-(6-chloro-3-ethoxypyridin-2-yl)-5-(2,6-difluoro-4-methoxyphenyl)-1-methyl-3-oxo-2,3-dihydro-1H-pyrazol-4-yl]-4-(difluoromethoxy)benzamide], the half-maximal effective concentration (EC50) at human FPR2 was 8 nM; on human FPR1, over 10000 nM.

On to `COc1cc(F)c(-c2c(NC(=O)c3ccc(OC(F)F)cc3)c(=O)n(-c3nc(NC4(C)CC4)ccc3C(F)(F)F)n2C)c(F)c1` [Example 266, N-[5-(2,6-difluoro-4-methoxyphenyl)-1-methyl-2-{6-[(1-methylcyclopropyl)amino]-3-(trifluoromethyl)pyridin-2-yl}-3-oxo-2,3-dihydro-1H-pyrazol-4-yl]-4-(difluoromethoxy)benzamide], for which the results for the concentration for a half-maximal effect (EC50) on human FPR2 and on human FPR1 were 4 nM and over 10000 nM, respectively.

`COc1cc(F)c(-c2c(NC(=O)c3ccc(OC(F)F)cc3)c(=O)n(-c3cc(OC4CCOC4)cc(C)n3)n2C)c(F)c1` (centres unmarked) [Example 321, N-(5-(2,6-Difluoro-4-methoxyphenyl)-1-methyl-2-(6-methyl-4-((tetrahydrofuran-3-yl)oxy)pyridin-2-yl)-3-oxo-2,3-dihydro-1H-pyrazol-4-yl)-4-(difluoromethoxy)benzamide]: the EC50 is 4 nM on human FPR2 and 390 nM at human FPR1.
